Experimental data from patent US20160166638A1, “LACTOFERRIN-OSTEOPONTIN-IRON COMPLEX” (NESTEC S.A., priority 2013, published 2016).

Assay: Colour change of iron fortified strawberry-banana yoghurt after flash pasteurization (CIELAB colorimetry)
Type: physicochemical
Settings: colour difference vs yoghurt with no iron salts; Jogolino Strawberry/Banana yoghurt, approx. 0.8 mg iron per 100 g; flash pasteurized at 105° C. for 2 minutes
Experimental: Commercial yoghurt, Nestlé Jogolino™ Strawberry/Banana yoghurt containing 15% banana puree and 10% strawberry puree, was iron fortified by the addition of different iron containing materials to 5 kg yoghurt as reported in the table below. The amounts were chosen to provide approximately 0.8 mg iron per 100 g yoghurt. A 100 g serving of yoghurt with that level of iron would provide 15% of the recommended daily amount of iron for an infant [Official Journal of the European Union, Commission Directive 2006/125/EC].
For the lactoferrin-osteopontin-iron complex (Trial B), the powder from Example 1 was added to yoghurt at a level of 28 g per 5 kg yoghurt. The resulting yoghurt composition comprised 5.6 g powder per kg which is 4 g LF-OPN-Fe complex per kg.
The yoghurts were flash pasteurized at 105° C. for 2 minutes. Colour measurements were performed in 1×1 cm polystyrene cuvettes using an X-Rite ColorEye 7000A colorimeter. The colorimeter was set up with a D65 light source, 10 degree observer angle and with specular component included. The colour difference between the yoghurt with no iron salts and the iron fortified yoghurt was measured for each iron salt and expressed as ΔEab* using the CIELAB colour scale.

| ΔEab* | SMILES |
| --- | --- |
| 4.74 | O.O=S(=O)([O-])[O-].[Fe+2] [FeSO4 × H2O] |
| 3.11 | O.O=C([O-])CN(CCN(CC(=O)[O-])CC(=O)[O-])CC(=O)[O-].[Fe+3].[Na+] [NaFeEDTA × H2O] |
